Results taken from PubChem BioAssay AID256 (DTP/NCI, 2004).
“And” between values parts separate entries of the source, which are not always exact repeats. Identical values can stand only once. Toxic doses and inconclusive results are not listed.

Test system: CD2F1 mice, L1210 leukemia ip, survival T/C
Experiment: NCI In Vivo Anticancer Drug Screen. Data for tumor model L1210 Leukemia (intraperitoneal) in CD2F1 (CDF1) mice
Details: higher = longer survival
Summary of the method: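 Mice carrying a transplanted tumor received test compound or vehicle alone. The value is the measurement in the treated group divided by that in the vehicle-treated control group.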

[1] = endpoint: mean survival time, dose: 100.0 mg/kg/injection, schedule: Q01DX009 (ip), vehicle: saline with Tween-80
[2] = endpoint: mean survival time, dose: 200.0 mg/kg/injection, schedule: Q01DX009 (ip), vehicle: saline with Tween-80
[3] = endpoint: mean survival time, dose: 400.0 mg/kg/injection, schedule: Q01DX009 (ip), vehicle: saline with Tween-80
[4] = endpoint: mean survival time, dose: 100.0 mg/kg/injection, schedule: Q01DX001 (ip), vehicle: saline
[5] = endpoint: mean survival time, dose: 200.0 mg/kg/injection, schedule: Q01DX001 (ip), vehicle: saline
[6] = endpoint: mean survival time, dose: 100.0 mg/kg/injection, schedule: Q04DX003 (ip), vehicle: saline with Tween-80
[7] = endpoint: mean survival time, dose: 200.0 mg/kg/injection, schedule: Q04DX003 (ip), vehicle: saline with Tween-80
[8] = endpoint: mean survival time, dose: 400.0 mg/kg/injection, schedule: Q04DX003 (ip), vehicle: saline with Tween-80
[9] = endpoint: mean survival time, dose: 100.0 mg/kg/injection, schedule: Q01DX001 (ip), vehicle: saline with Tween-80
[10] = endpoint: mean survival time, dose: 50.0 mg/kg/injection, schedule: Q01DX009 (ip), vehicle: Klucel (hydroxypropylcellulose) (HPC)
[11] = endpoint: mean survival time, dose: 100.0 mg/kg/injection, schedule: Q01DX009 (ip), vehicle: Klucel (hydroxypropylcellulose) (HPC)
[12] = endpoint: mean survival time, dose: 100.0 mg/kg/injection, schedule: Q04DX003 (ip), vehicle: saline
[13] = endpoint: mean survival time, dose: 200.0 mg/kg/injection, schedule: Q04DX003 (ip), vehicle: saline
[14] = endpoint: mean survival time, dose: 400.0 mg/kg/injection, schedule: Q04DX003 (ip), vehicle: saline

## CC(=O)OCc1ccc(Cl)cc1Cl
[1]
  T/C: 98 % of control
[2]
  T/C: 104 % of control
[3]
  T/C: 95 % of control

## O=c1[nH]c(=O)n(C(c2ccccc2)(c2ccccc2)c2ccccc2)cc1N(CCO)CCO
endpoint: mean survival time, dose: 50.0 mg/kg/injection, schedule: Q01DX001 (ip), vehicle: saline
  T/C: 91 % of control
[4]
  T/C: 100 % of control
[5]
  T/C: 87 % of control
endpoint: mean survival time, dose: 400.0 mg/kg/injection, schedule: Q01DX001 (ip), vehicle: saline
  T/C: 91 % of control

## Cc1ccc(NC(=O)OCCOc2ccc(Cl)cc2)cc1[N+](=O)[O-]
endpoint: mean survival time, dose: 50.0 mg/kg/injection, schedule: Q01DX009 (ip), vehicle: saline with Tween-80
  T/C: 96 % of control
[1]
  T/C: 88 % of control
[2]
  T/C: 88 % of control

## CC(C)CCNC(=O)NS(=O)(=O)c1ccc(N)cc1
[6]
  T/C: 102 % of control
[7]
  T/C: 102 % of control
[8]
  T/C: 98 % of control

## CC(C)OC(=O)c1cc([N+](=O)[O-])cc([N+](=O)[O-])c1Sc1ncnc2nc[nH]c12
endpoint: mean survival time, dose: 0.63 mg/kg/injection, schedule: Q01DX005 (ip), vehicle: other
  T/C: 115 % of control
endpoint: mean survival time, dose: 1.25 mg/kg/injection, schedule: Q01DX005 (ip), vehicle: other
  T/C: 118 % of control
endpoint: mean survival time, dose: 2.5 mg/kg/injection, schedule: Q01DX005 (ip), vehicle: other
  T/C: 115 % of control
endpoint: mean survival time, dose: 18.8 mg/kg/injection, schedule: Q01DX005 (ip), vehicle: other
  T/C: 156 % of control

## c1ccc(-c2cc(-c3ccccc3)on2)cc1
[1]
  T/C: 96 % of control
[6]
  T/C: 93 % of control
[2]
  T/C: 94 % of control
[7]
  T/C: 94 % of control
[3]
  T/C: 97 % of control
[8]
  T/C: 98 % of control

## CC(=O)Nc1ccc(C)c(Cl)c1
[1]
  T/C: 96 % of control
[6]
  T/C: 101 % of control
[2]
  T/C: 94 % of control
[7]
  T/C: 103 % of control
[3]
  T/C: 88 % of control
[8]
  T/C: 101 % of control

## c1ccc(N=Nn2c3ccccc3c3ccccc32)cc1
[9]
  T/C: 104 % of control
endpoint: mean survival time, dose: 200.0 mg/kg/injection, schedule: Q01DX001 (ip), vehicle: saline with Tween-80
  T/C: 102 % of control
endpoint: mean survival time, dose: 264.0 mg/kg/injection, schedule: Q01DX001 (ip), vehicle: saline with Tween-80
  T/C: 104 % of control
endpoint: mean survival time, dose: 400.0 mg/kg/injection, schedule: Q01DX001 (ip), vehicle: saline with Tween-80
  T/C: 120 % of control
endpoint: mean survival time, dose: 600.0 mg/kg/injection, schedule: Q01DX001 (ip), vehicle: saline with Tween-80
  T/C: 104 % of control

## CC1(C)OC2C(CO)OC(n3nc(SCc4ccccc4)c(=S)[nH]c3=O)C2O1 (stereo not given)
endpoint: median survival time, dose: 12.5 mg/kg/injection, schedule: Q01DX005 (ip), vehicle: distilled water + Tween-80
  T/C: 96 % of control
endpoint: median survival time, dose: 25.0 mg/kg/injection, schedule: Q01DX005 (ip), vehicle: distilled water + Tween-80
  T/C: 103 % of control
endpoint: median survival time, dose: 50.0 mg/kg/injection, schedule: Q01DX005 (ip), vehicle: distilled water + Tween-80
  T/C: 96 % of control
endpoint: median survival time, dose: 100.0 mg/kg/injection, schedule: Q01DX005 (ip), vehicle: distilled water + Tween-80
  T/C: 96 % of control
endpoint: median survival time, dose: 200.0 mg/kg/injection, schedule: Q01DX005 (ip), vehicle: distilled water + Tween-80
  T/C: 95 % of control

## CN(C)c1ccc(C(=C(c2ccc(N(C)C)cc2)c2ccc(N(C)C)cc2)c2ccc(N(C)C)cc2)cc1
endpoint: mean survival time, dose: 75.0 mg/kg/injection, schedule: Q01DX001 (ip), vehicle: saline
  T/C: 106 % of control

## CC(C)c1nc(CCl)c(CCl)n1Cc1ccccc1
[10]
  T/C: 97 % of control
[11]
  T/C: 94 % of control
endpoint: mean survival time, dose: 200.0 mg/kg/injection, schedule: Q01DX009 (ip), vehicle: Klucel (hydroxypropylcellulose) (HPC)
  T/C: 90 % of control

## CCOC(=O)C(C(=O)OCC)[N+](=O)[O-]
endpoint: mean survival time, dose: 50.0 mg/kg/injection, schedule: Q04DX003 (ip), vehicle: saline
  T/C: 102 % of control
[4]
  T/C: 97 % of control
[12]
  T/C: 100 % of control
[5]
  T/C: 95 % of control
[13]
  T/C: 105 % of control

## CC(C)C(=O)Nc1nc(OCCc2ccc([N+](=O)[O-])cc2)c2ncn(C3CC(O)C(CO)O3)c2n1 (stereo not given)
endpoint: median survival time, dose: 12.5 mg/kg/injection, schedule: Q01DX005 (ip), vehicle: saline with Tween-80
  T/C: 101 % of control
endpoint: median survival time, dose: 25.0 mg/kg/injection, schedule: Q01DX005 (ip), vehicle: saline with Tween-80
  T/C: 97 % of control
endpoint: median survival time, dose: 50.0 mg/kg/injection, schedule: Q01DX005 (ip), vehicle: saline with Tween-80
  T/C: 97 % of control
endpoint: median survival time, dose: 100.0 mg/kg/injection, schedule: Q01DX005 (ip), vehicle: saline with Tween-80
  T/C: 95 % of control
endpoint: median survival time, dose: 200.0 mg/kg/injection, schedule: Q01DX005 (ip), vehicle: saline with Tween-80
  T/C: 86 % of control

## COC(=O)c1cccc2c1OCO2
[1]
  T/C: 101 % of control
[6]
  T/C: 100 % of control
[2]
  T/C: 101 % of control
[7]
  T/C: 100 % of control
[3]
  T/C: 101 % of control
[8]
  T/C: 103 % of control

## CSc1ccccc1C1=CCCCC1
[12]
  T/C: 95 % of control
[13]
  T/C: 93 % of control
[14]
  T/C: 98 % of control

## CC(=O)Nc1cc(CN2CCCCC2)c(O)c2ncccc12
endpoint: mean survival time, dose: 75.0 mg/kg/injection, schedule: Q01DX001 (ip), vehicle: other
  T/C: 102 % of control
endpoint: mean survival time, dose: 150.0 mg/kg/injection, schedule: Q01DX001 (ip), vehicle: other
  T/C: 102 % of control

## COc1cc2ccc(CC(=S)N3CCOCC3)cc2cc1OC
[1]
  T/C: 98 % of control
[6]
  T/C: 104 % of control
[2]
  T/C: 93 % of control
[7]
  T/C: 95 % of control
[3]
  T/C: 96 % of control

## O=C(O)C1C2CCC1C(O)C2 (stereo not given)
[1]
  T/C: 94 % of control
[2]
  T/C: 94 % of control
[3]
  T/C: 88 % of control

## Nc1ncnc2c(C3OC(CO)C(O)C3O)c[nH]c12 (stereo not given)
endpoint: median survival time, dose: 0.05 mg/kg/injection, schedule: Q01DX005 (ip), vehicle: saline
  T/C: 114 % of control and 121 % of control
endpoint: median survival time, dose: 0.1 mg/kg/injection, schedule: Q01DX005 (ip), vehicle: saline
  T/C: 116 % of control and 123 % of control
endpoint: median survival time, dose: 0.4 mg/kg/injection, schedule: Q01DX005 (ip), vehicle: saline
  T/C: 115 % of control
endpoint: median survival time, dose: 0.8 mg/kg/injection, schedule: Q01DX005 (ip), vehicle: saline
  T/C: 102 % of control and 104 % of control

## COC1=C(OC)C(=O)C(C/C=C(\C)CCCC(C)CCCC(C)CCCC(C)C)=C(C)C1=O (stereo not given)
endpoint: mean survival time, dose: 100.0 mg/kg/injection, schedule: Q01DX009 (ip), vehicle: other
  T/C: 94 % of control
endpoint: mean survival time, dose: 200.0 mg/kg/injection, schedule: Q01DX009 (ip), vehicle: other
  T/C: 95 % of control
endpoint: mean survival time, dose: 400.0 mg/kg/injection, schedule: Q01DX009 (ip), vehicle: other
  T/C: 94 % of control

## C=CC[P+](c1ccccc1)(c1ccccc1)c1ccccc1
endpoint: mean survival time, dose: 6.25 mg/kg/injection, schedule: Q01DX001 (ip), vehicle: saline
  T/C: 101 % of control
endpoint: mean survival time, dose: 12.5 mg/kg/injection, schedule: Q01DX001 (ip), vehicle: saline
  T/C: 100 % of control and 112 % of control
endpoint: mean survival time, dose: 25.0 mg/kg/injection, schedule: Q01DX001 (ip), vehicle: saline
  T/C: 96 % of control and 103 % of control

## C1CC[N-]CC1.C1CC[N-]CC1.[Cl][Pt+2]([Cl])([Cl])[Cl]
[6]
  T/C: 97 % of control
[7]
  T/C: 92 % of control
[8]
  T/C: 93 % of control

## CCCCCCCCCCCCCCCCCC[n+]1cccc(C(=O)N2CCOCC2)c1
endpoint: mean survival time, dose: 25.0 mg/kg/injection, schedule: Q01DX009 (ip), vehicle: Klucel (hydroxypropylcellulose) (HPC)
  T/C: 90 % of control
[10]
  T/C: 95 % of control
[11]
  T/C: 92 % of control

## O=C(Nc1ccc(S(=O)(=O)F)c(Cl)c1)Oc1ccccc1
[1]
  T/C: 101 % of control
[12]
  T/C: 95 % of control
[2]
  T/C: 100 % of control
[13]
  T/C: 95 % of control
[3]
  T/C: 97 % of control
[14]
  T/C: 101 % of control

## c1ccc(CC23CN(C4CCCCC4)CC24N(c2ccccc23)C23CN(C5CCCCC5)CC2(Cc2ccccc2)c2ccccc2N43)cc1 (stereo not given)
[9]
  T/C: 90 % of control
